This note sets out measurements from patent US9119806B2, “Culturing circular ssDNA viruses for the production of vaccines” (priority 2007, dated 2015).

Experiment [1] relates to PCV2-infected PK-15 cells. In words: Number of PCV2-infected PK-15 cells (IPMA) after treatment with cytokines or natural cytokine sources. Format: cell-based, Porcine circovirus 2. The following applies: PK-15 cells; cytokine dilution series, before, during or after inoculation; 36 h. As for the experimental part: PK-15 cells were seeded and maintained in culture medium containing 5%-10% fetal bovine serum (FBS), 0.3 mg/ml glutamine, 100 U/ml penicillin, 0.1 mg/ml streptomycin, 0.1 mg/ml kanamycin dissolved in minimal essential medium (MEM) (Gibco BRL®, Grand Island, USA) or dissolved in RPMI-1640 (GIBCO BRL®, Grand Island, USA) containing 1% nonessential amino acids (100×; GIBCO BRL®, Grand Island, USA) and 1 mM sodium pyruvate (GIBCO BRL®, Grand Island, USA). Cells were seeded at a concentration of 150,000 cells per ml of medium. For the detection of total viral antigen positive cells, the cells were seeded in 96-well microtiter plates (Nunc) (15,000-20,000 cells per well). To detect the expression of specific viral antigens, cells were seeded on sterile cover slips in Leighton tubes (150,000 cells per tube) and finally progeny virus production assays were performed in 24-well plates containing […].
(§1) In order to use cells, more related to the target cells in vivo, the monocytic cell line 3D4/31 was used to confirm the effect of the different cytokines on the number of PCV2-infected cells. The 3D4/31 cell line is a porcine monomyeloid cell lines that was established following transfection of primary porcine alveolar macrophage cultures with plasmid pSV3neo, carrying genes for neomycin resistance and SV40 large T antigen. (Weingartl et al. (2002) J Virol Methods. 10, 203-216). These cells were maintained in a 1:1 mixture of RPMI-1640 (Invitrogen) and DMEM (Invitrogen) supplemented with 10% fetal bovine serum, 0.3 mg/ml glutamine, 100 U/ml penicillin, 0.1 mg/ml streptomycin, 0.1 mg/ml kanamycin and 1% non-essential amino acids 100× (GIBCO BRL®, Grand Island, USA). These experiments were also performed in 96-well plates containing the same number of cells. Furthermore, to monitor the effect of IFN-gamma on the entry of PCV2 virion-like particles was determined, 3D4/31 cells were seeded at 2×10^5 cells/ml of medium onto microscopic slides mounted with an 8 well cell culture silicone chamber (Vivascience AG, Hanover). In all inoculations, the same PCV2-strain (Stoon-1010) was used at a multiplicity of infection of 0.01. The virus was diluted in MEM and inoculated on the cell cultures by incubating cells and virus for 1 hour at 37° C. After 1 hour, the inoculum was removed, the cultures were washed twice with MEM and new culture medium was added.
(§2) The influence of the cytokines on the infection of PCV2 in PK-15 and 3D4/31 cells was determined by adding two-fold-dilution series of the cytokines to the medium of the cells before, during or after the inoculation. IL-1, IL-6, […] and IFN-alpha were used in concentrations ranging from 0.25-250 Units/ml (U/ml), IFN-gamma was used in concentrations ranging from 0.25-1000 U/ml and IL-10 was used in concentrations from 0.13-125 U/ml. Cell cultures were either pre-treated with the cytokines for 24 hours before inoculation, treated during the inoculation or the cytokines were added in the medium after the inoculation. After 36 hours of incubation at 37° C. in an environment supplemented with 5% CO2, the cells were fixed by drying and frozen at −20° C. The plates were stained with an immuno-peroxydase monolayer assay (IPMA) as described by Sanchez et al. (2003, Vet Microbiol 95, 15-25) and the number of PCV2-positive cells was counted by light microscopy. In each plate a control was inoculated with an equal dose of mock-treated PCV2 (treated with MEM without cytokines). The number of infected cells in this well was used as the reference and all results were expressed as a ratio to this reference.
Two-fold dilutions of the BAL-fluids of the PRCV and mock-inoculated pigs were added to the medium of PCV2-inoculated PK-15 cells after inoculation. Concentrations of the added BAL-fluids ranged from 1.25 to 5%. Supernatants of ConA and mock-stimulated PBMC's were also added to the culture medium of PK-15 cells after inoculation in concentrations ranging from […] to 50%. […]

For experiment [2], the system named is PCV2-infected 3D4/31 cells. The experiment is described as follows: Number of PCV2-infected 3D4/31 cells (IPMA) after cytokine treatment. It counts as cell-based, Porcine circovirus 2. The conditions noted are these: 3D4/31 cells; any concentration, before, during or after inoculation.
Excerpt: as §1, §2

For experiment [3], the system named is PCV2 infection of PK-15 cells. In words: Number of PCV2-infected PK-15 cells (IPMA) with endosomal-lysosomal acidification inhibitors with or without IFN-gamma. Format: cell-based, Porcine circovirus 2. The conditions noted are these: for effect on PCV2 infection in IFN-gamma treated cells (in words): PK-15 pre-treated with 500 U/ml IFN-gamma 24 hours; for effect on PCV2 infection in IFN-gamma treated cells (in words) / effect on PCV2 infection compared to control (in words): inhibitor 24 hours after inoculation, 36 hpi; for effect on PCV2 infection compared to control (in words): PK-15 without IFN-gamma; for highest concentration exerting maximal effect without affecting cell viability (chosen): two-fold dilution in PK-15 cells, Stoon-1010. Here is the method: Endosomal-lysosomal system acidification was inhibited using lysosomotropic weak bases (ammonium chloride and chloroquine diphosphate) and carboxylic ionophore monensin. All chemical compounds were purchased from Sigma. In a first set of experiments, a two-fold dilution of each inhibitor in PK-15 cells using Stoon-1010 was performed to determine the highest concentration of each inhibitor that exerted the maximal effect without affecting cell viability. Finally, 25 mM ammonium chloride, 125 μM chloroquine diphosphate and 6 μM monensin were chosen. PK-15 cells were cultivated for 24 hours and then inoculated with a dose of PCV2 for 1 hour at 37° C. The viral inoculum was washed-off and cells were further incubated in culture medium with or without inhibitors of endosomal-lysosomal acidification for 24 hours. Then, the culture medium containing endosomal-lysosomal system inhibitors was replaced with fresh culture medium without inhibitors. After the first cycle of PCV2 replication, at 36 hpi, cells were fixed with methanol at −20° C. for 10 minutes. Cells were stored at −20° C. until they were stained using an immunoperoxidase monolayer assay (IPMA) as described by Sanchez et al. (2003, Vet Microbiol 95, 15-25).
PK-15 cells were pre-treated with or without 500 U/ml IFN-gamma for 24 hours before they were inoculated with the same dose of PCV2 for 1 hour at 37° C. The viral inoculum was washed-off and cells were further incubated in culture medium containing inhibitors of endosomal-lysosomal acidification for 24 hours. Then, the culture medium containing endosomal-lysosomal system inhibitors was replaced with fresh culture medium without inhibitors. After the first cycle of PCV2 replication, at 36 hours post-inoculation cells were fixed with methanol at −20° C. for 10 minutes. Cells were stored at −20° C. until they were stained using an immunoperoxidase monolayer assay (IPMA) as described above. The number of infected cells per well in mock-treated cells inoculated with an equal dose of PCV2 as treated cells was used as the referent, and all results are expressed as a percentage of this referent. All experiments were performed three times, and each condition in a single experiment was performed in duplicate.

Experiment [4] has as its system PCV2 strain Stoon-1010 in PK-15 cells. In words: Progeny PCV2 production in PK-15 cells with acidification inhibitors and/or IFN-gamma. Format: cell-based, Porcine circovirus 2. As for the experimental part:
For progeny virus production assays, 2×10^5 cells were seeded in every well of 24-well cell culture plates. Cells were pre-treated with or without 500 U/ml IFN-gamma at 6 hours post seeding. At 24 h post-seeding, cells were washed and inoculated with the prototype PCV2 strain Stoon-1010 at an m.o.i. of 0.3 for 1 hour at 37° C. The viral inoculum was washed-off and cells were further incubated in 1 ml of culture medium with or without 25 mM ammonium chloride, 125 μM chloroquine diphosphate and/or 6 μM monensin for 24 hours. Then, the culture medium with or without endosomal-lysosomal system acidification inhibitors was replaced with fresh culture medium without inhibitors. At 1, 24, 48 and 72 hours post-inoculation the supernatant was collected. Subsequently the culture was washed once with 1 ml PBS. Both the supernatant and the washing fluid were centrifuged for 10 minutes at 15,000×g to pellet cells and debris. The centrifuged supernatant and washing fluids were combined and considered to contain the extracellular virus. Both pellets and cell cultures were freeze-thawed three times and considered to contain the intracellular virus. Intra- and extracellular virus titres were determined by titration on PCV-negative PK-15 cells as described previously. Viral antigens were detected using an IPMA as described above and PCV2 titre was expressed as log10 TCID50 per 10^5 cells.

Experiment [5] has as its system PCV2 (field strain Imp-1121). The experiment is described as follows: PCV2 replication in inoculated pigs given IFN-gamma or ConA. Format: in vivo. The following applies: pigs inoculated at 19 days of age; samples 10, 15, 21 days post inoculation. As for the experimental part:
Pigs are inoculated with PCV2 (field strain Imp-1121) at 19 days of age. These inoculated pigs are divided in 3 groups. One group contains control pigs (only PCV2). The second group of pigs receives recombinant IFN-gamma (100,000 U per pig every three days). The third group contains pigs that receive ConA (1.5 mg/kg every three days). At different times post inoculation (10, 15, 21 days) samples are collected and the replication of the virus is assessed.

Setting [6] is: IFN-gamma 500 U/ml pre-treatment.

As for TNF-alpha, the “change in the number of PCV2-positive cells (in words)” value (from here on “change in the number”) is “no significant change” in experiment [1] and “did not induce a significant change” in experiment [2].

For the molecule `Cl.N` [Ammonium chloride, ammonium chloride], in experiment [3], the “effect on PCV2 infection in IFN-gamma treated cells (in words)” value was “enhanced PCV2 infection”, the “effect on PCV2 infection compared to control (in words)” value is given as “enhance PCV2 infection” and the “highest concentration exerting maximal effect without affecting cell viability (chosen)” value is 25000 µM. Moreover, in experiment [4] (IFN-gamma 0 U/ml), the “PCV2 titres at 1 hpi” value was 2.1 TCID50 per 10^5 cells, the “PCV2 titres at 24 hpi” value is 1.9 TCID50 per 10^5 cells, the “PCV2 titres at 48 hpi” value is 3.0 TCID50 per 10^5 cells and the “PCV2 titres at 72 hpi” value is listed as 3.8 TCID50 per 10^5 cells. For the same molecule, in experiment [4] (setting [6]), the “PCV2 titres at 1 hpi” value is on record as 1.6 TCID50 per 10^5 cells, the “PCV2 titres at 24 hpi” value was determined as 3.0 TCID50 per 10^5 cells, the “PCV2 titres at 48 hpi” value is 4.0 TCID50 per 10^5 cells and the “PCV2 titres at 72 hpi” value is 4.8 TCID50 per 10^5 cells.

Regarding `CCN(CC)CCCC(C)Nc1ccnc2cc(Cl)ccc12` (stereo not shown) [Chloroquine diphosphate, chloroquine diphosphate], in experiment [3], the “effect on PCV2 infection in IFN-gamma treated cells (in words)” value is reported as “enhanced PCV2 infection”, the “effect on PCV2 infection compared to control (in words)” value is given as “enhance PCV2 infection” and the “highest concentration exerting maximal effect without affecting cell viability (chosen)” value came to 125 µM. For the same molecule, in experiment [4] (IFN-gamma 0 U/ml), the “PCV2 titres at 1 hpi” value came to 1.4 TCID50 per 10^5 cells, the “PCV2 titres at 24 hpi” value stood at 1.8 TCID50 per 10^5 cells, the “PCV2 titres at 48 hpi” value amounted to 3.3 TCID50 per 10^5 cells and the “PCV2 titres at 72 hpi” value amounted to 4.3 TCID50 per 10^5 cells. In addition, in experiment [4] (setting [6]), the “PCV2 titres at 1 hpi” value was determined as 1.6 TCID50 per 10^5 cells, the “PCV2 titres at 24 hpi” value worked out at 2.3 TCID50 per 10^5 cells, the “PCV2 titres at 48 hpi” value turned out to be 4.0 TCID50 per 10^5 cells and the “PCV2 titres at 72 hpi” value turned out to be 4.6 TCID50 per 10^5 cells.

Consider `CC[C@@]1([C@@H]2O[C@@H]([C@H]3O[C@@](O)(CO)[C@H](C)C[C@@H]3C)C[C@@H]2C)CC[C@H]([C@]2(C)CC[C@]3(C[C@H](O)[C@@H](C)[C@@H]([C@@H](C)[C@@H](OC)[C@H](C)C(=O)O)O3)O2)O1` [Monensin, monensin], for which, in experiment [3], the “effect on PCV2 infection in IFN-gamma treated cells (in words)” value was “enhanced PCV2 infection”, the “effect on PCV2 infection compared to control (in words)” value is recorded as “enhance PCV2 infection” and the “highest concentration exerting maximal effect without affecting cell viability (chosen)” value amounted to 6 µM. For the same molecule, in experiment [4] (IFN-gamma 0 U/ml), the “PCV2 titres at 1 hpi” value is listed as 1.9 TCID50 per 10^5 cells, the “PCV2 titres at 24 hpi” value was 2.3 TCID50 per 10^5 cells, the “PCV2 titres at 48 hpi” value is on record as 3.9 TCID50 per 10^5 cells and the “PCV2 titres at 72 hpi” value worked out at 3.6 TCID50 per 10^5 cells. In experiment [4] (setting [6]), the “PCV2 titres at 1 hpi” value is on record as 2.0 TCID50 per 10^5 cells, the “PCV2 titres at 24 hpi” value amounted to 2.8 TCID50 per 10^5 cells, the “PCV2 titres at 48 hpi” value turned out to be 4.6 TCID50 per 10^5 cells and the “PCV2 titres at 72 hpi” value worked out at 4.8 TCID50 per 10^5 cells.

With concanavalin A [ConA], in experiment [5], the “replication of PCV2 compared to control pigs (in words)” value is “increase in the replication of PCV2”.

B1: IL-10: Porcine interleukin 10 (R&D systems) (protein, UniProt Q29055 19-175, looked up)
Interleukin-10: SIKSENSCIHFPTSLPHMLRELRAAFGPVKSFFQTKDQMGDLLLTGSLLEDFKGYLGCQALSEMIQFYLEDVMPKAESDGEDIKEHVNSLGEKLKTLRLRLRRCHQFLPCENKSKAVEEVKSAFSKLQERGVYKAMGEFDIFINYIEAYMTMKMRKN
As to B1, the figures for the “change in the number” value in experiment [1] and in experiment [2] were “no significant change” and “did not induce a significant change”, respectively.

B2: IL-6: Porcine interleukin 6 (R&D systems) (protein, UniProt P26893 30-212, looked up)
Interleukin-6: ERLEEDAKGDATSDKMLFTSPDKTEELIKYILGKISAMRKEMCEKYEKCENSKEVLAENNLNLPKMAEKDGCFQSGFNQETCLMRITTGLVEFQIYLDYLQKEYESNKGNVEAVQISTKALIQTLRQKGKNPDKATTPNPTTNAGLLDKLQSQNEWMKNTKIILILRSLEDFLQFSLRAIRIM
Consider B2, for which the “change in the number” value in experiment [1] is recorded as “no significant change”; in experiment [2] it was “did not induce a significant change”.
